Reference: article PMC6199744, “Development of Chemical Proteomics for the Folateome and Analysis of the Kinetoplastid Folateome” (ACS Infectious Diseases, 2018)

Assays:
Format in all cases: binding
[1] = biological target: T1, HeLa cell extract proteins (Homo sapiens, UniProt Q9Y266); conditions: protein NUDC; HeLa
T1 construct: endogenous in cells; host or cells: HeLa cell extract

[2] = biological target: T2, HeLa cell extract proteins (Homo sapiens, UniProt O15111); conditions: HeLa; protein CHUK
T2 construct: endogenous in cells; host or cells: HeLa cell extract
T2 sequence (O15111 1-745): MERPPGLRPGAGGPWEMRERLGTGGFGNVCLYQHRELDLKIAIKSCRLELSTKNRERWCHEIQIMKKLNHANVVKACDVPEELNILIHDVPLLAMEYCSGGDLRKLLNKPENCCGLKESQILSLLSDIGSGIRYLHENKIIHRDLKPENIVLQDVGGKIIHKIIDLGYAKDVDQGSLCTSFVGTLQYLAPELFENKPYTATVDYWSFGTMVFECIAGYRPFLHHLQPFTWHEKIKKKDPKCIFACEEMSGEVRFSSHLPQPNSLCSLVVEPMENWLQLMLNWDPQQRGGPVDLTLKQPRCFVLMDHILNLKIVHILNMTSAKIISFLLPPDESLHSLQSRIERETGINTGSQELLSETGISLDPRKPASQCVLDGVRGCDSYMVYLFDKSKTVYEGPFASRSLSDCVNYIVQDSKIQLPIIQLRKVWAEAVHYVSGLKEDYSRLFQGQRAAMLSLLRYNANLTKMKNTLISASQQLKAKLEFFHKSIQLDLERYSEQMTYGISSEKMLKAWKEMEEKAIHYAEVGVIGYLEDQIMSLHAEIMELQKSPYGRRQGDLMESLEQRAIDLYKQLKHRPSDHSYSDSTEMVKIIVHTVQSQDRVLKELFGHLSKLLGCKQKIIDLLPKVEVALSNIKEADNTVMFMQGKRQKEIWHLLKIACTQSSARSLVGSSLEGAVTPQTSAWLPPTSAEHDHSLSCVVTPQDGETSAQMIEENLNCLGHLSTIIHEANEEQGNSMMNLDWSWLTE

[3] = biological target: T3, HeLa cell extract proteins (Homo sapiens, UniProt P14866); conditions: protein HNRNPL; HeLa
T3 construct: endogenous in cells; host or cells: HeLa cell extract
T3 sequence (P14866 1-589): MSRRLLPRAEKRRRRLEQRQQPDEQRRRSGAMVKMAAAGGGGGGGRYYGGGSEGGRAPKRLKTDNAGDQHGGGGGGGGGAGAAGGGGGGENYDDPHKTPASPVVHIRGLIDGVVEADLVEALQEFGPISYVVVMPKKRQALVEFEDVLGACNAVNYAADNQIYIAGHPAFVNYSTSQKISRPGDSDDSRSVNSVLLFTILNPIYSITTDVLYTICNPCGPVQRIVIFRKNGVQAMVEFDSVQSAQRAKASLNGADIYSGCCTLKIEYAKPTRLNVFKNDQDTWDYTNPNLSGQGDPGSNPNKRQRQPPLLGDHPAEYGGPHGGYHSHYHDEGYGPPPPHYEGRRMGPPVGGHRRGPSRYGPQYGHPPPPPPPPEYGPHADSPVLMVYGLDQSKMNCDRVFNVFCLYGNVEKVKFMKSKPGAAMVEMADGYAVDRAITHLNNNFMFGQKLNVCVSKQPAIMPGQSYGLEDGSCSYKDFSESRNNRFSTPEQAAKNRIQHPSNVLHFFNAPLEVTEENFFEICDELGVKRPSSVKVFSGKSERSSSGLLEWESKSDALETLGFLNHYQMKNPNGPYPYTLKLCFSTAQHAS

[4] = biological target: T4, HeLa cell extract proteins (Homo sapiens, UniProt Q8WUX1); conditions: HeLa; protein SLC38A5
T4 construct: endogenous in cells; host or cells: HeLa cell extract

[5] = biological target: T5, HeLa cell extract proteins (Homo sapiens, UniProt Q00653); conditions: protein NFKB2; HeLa
T5 construct: endogenous in cells; host or cells: HeLa cell extract
T5 sequence (Q00653 1-900): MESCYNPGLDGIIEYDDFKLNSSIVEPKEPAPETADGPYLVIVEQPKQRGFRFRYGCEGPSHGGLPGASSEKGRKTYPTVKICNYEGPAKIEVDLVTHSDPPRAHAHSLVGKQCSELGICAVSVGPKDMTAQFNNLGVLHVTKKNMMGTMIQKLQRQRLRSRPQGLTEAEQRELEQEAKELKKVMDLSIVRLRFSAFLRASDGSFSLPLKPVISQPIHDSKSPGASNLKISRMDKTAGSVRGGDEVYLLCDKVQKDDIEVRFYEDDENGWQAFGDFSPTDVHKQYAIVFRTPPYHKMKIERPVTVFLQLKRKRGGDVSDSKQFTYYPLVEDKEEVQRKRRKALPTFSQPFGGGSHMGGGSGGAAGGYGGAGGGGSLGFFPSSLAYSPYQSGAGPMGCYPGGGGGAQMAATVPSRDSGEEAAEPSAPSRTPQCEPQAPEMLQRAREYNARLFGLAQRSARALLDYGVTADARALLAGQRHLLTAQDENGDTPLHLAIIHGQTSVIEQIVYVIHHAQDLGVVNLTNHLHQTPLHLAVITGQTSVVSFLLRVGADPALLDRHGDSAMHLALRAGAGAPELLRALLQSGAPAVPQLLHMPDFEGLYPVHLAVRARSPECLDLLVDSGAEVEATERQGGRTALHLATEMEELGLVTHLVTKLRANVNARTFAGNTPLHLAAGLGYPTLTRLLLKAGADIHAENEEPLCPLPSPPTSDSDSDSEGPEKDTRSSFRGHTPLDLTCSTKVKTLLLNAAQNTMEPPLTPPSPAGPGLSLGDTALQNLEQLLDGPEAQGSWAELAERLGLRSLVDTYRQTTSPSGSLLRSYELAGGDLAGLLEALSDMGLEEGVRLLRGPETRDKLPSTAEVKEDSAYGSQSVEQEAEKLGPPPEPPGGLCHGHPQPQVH

T4 sequence (Q8WUX1 whole entry): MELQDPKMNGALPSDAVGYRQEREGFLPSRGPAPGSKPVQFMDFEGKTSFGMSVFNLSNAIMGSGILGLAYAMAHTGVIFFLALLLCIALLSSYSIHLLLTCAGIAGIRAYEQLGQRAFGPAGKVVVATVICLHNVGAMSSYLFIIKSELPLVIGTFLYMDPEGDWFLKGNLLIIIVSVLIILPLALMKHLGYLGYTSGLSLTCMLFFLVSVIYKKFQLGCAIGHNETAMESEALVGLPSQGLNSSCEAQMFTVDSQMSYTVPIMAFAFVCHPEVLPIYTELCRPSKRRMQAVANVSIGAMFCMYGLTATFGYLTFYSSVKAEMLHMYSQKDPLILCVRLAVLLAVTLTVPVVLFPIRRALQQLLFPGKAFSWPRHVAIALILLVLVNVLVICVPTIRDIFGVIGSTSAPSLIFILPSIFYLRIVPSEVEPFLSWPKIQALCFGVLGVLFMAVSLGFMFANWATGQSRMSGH
T1 sequence (Q9Y266 whole entry): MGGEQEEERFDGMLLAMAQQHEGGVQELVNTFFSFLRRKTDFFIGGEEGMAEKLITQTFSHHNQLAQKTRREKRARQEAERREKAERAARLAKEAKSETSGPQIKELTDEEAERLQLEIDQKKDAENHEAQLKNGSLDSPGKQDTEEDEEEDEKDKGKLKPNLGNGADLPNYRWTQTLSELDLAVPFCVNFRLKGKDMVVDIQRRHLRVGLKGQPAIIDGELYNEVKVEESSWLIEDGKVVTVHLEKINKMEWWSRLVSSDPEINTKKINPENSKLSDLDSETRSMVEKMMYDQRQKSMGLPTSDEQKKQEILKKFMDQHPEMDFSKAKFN

Compound	fold changes relative to vehicle control [1]	fold changes relative to vehicle control [2]	fold changes relative to vehicle control [3]	fold changes relative to vehicle control [4]	fold changes relative to vehicle control [5]
Nc1nc2cccc(-c3ccccc3)c2n1Cc1ccc(Cl)c(Cl)c1 [compound 3]	1.06	0.9	0.88	0.95	0.9
CCCCCCOc1ccc(Cc2cnc(N)nc2N)cc1 [compound 1]	1.23	0.98	1	0.91	0.9
CCCCCCOc1cccc(Cc2cnc(N)nc2N)c1 [compound 2]	1.92	1.04	1.02	1.14	1.24
